{
  "source": "PubChem BioAssay (NCI)",
  "assay_in_all_cases": "growth of human tumour cells (NCI), 384-well format",
  "key": {"IGROV1 ovarian": {"system": "IGROV1 ovarian"}, "NCI-H522 lung": {"system": "NCI-H522 lung"}, "A498 renal": {"system": "A498 renal"}, "MOLT-4 leukemia": {"system": "MOLT-4 leukemia"}, "NCI-H460 NSCLC": {"system": "NCI-H460 NSCLC"}, "HL-60(TB) leukemia": {"system": "HL-60(TB) leukemia"}, "PC-3 prostate": {"system": "PC-3 prostate"}, "HCT-15 colon": {"system": "HCT-15 colon"}, "OVCAR-5 ovarian": {"system": "OVCAR-5 ovarian"}, "SN12C renal": {"system": "SN12C renal"}, "MALME-3M melanoma": {"system": "MALME-3M melanoma"}, "SF-268 CNS": {"system": "SF-268 CNS"}, "MCF7 breast": {"system": "MCF7 breast"}, "NCI-H23 lung": {"system": "NCI-H23 lung"}, "MDA-MB-468 breast": {"system": "MDA-MB-468 breast"}, "MDA-MB-231 breast": {"system": "MDA-MB-231 breast"}, "OVCAR-4 ovarian": {"system": "OVCAR-4 ovarian"}, "NCI-H226 lung": {"system": "NCI-H226 lung"}, "HOP-92 NSCLC": {"system": "HOP-92 NSCLC"}, "SNB-75 CNS": {"system": "SNB-75 CNS"}, "NCI/ADR-RES ovarian": {"system": "NCI/ADR-RES ovarian"}, "SK-MEL-5 melanoma": {"system": "SK-MEL-5 melanoma"}, "786-0 renal": {"system": "786-0 renal"}, "SF-539 CNS": {"system": "SF-539 CNS"}, "ACHN renal": {"system": "ACHN renal"}, "SNB-19 CNS": {"system": "SNB-19 CNS"}, "T-47D breast": {"system": "T-47D breast"}, "RXF 393 renal": {"system": "RXF 393 renal"}, "HS 578T breast": {"system": "HS 578T breast"}, "MDA-MB-435 melanoma": {"system": "MDA-MB-435 melanoma"}, "OVCAR-8 ovarian": {"system": "OVCAR-8 ovarian"}, "OVCAR-3 ovarian": {"system": "OVCAR-3 ovarian"}, "DU-145 prostate": {"system": "DU-145 prostate"}, "HOP-62 NSCLC": {"system": "HOP-62 NSCLC"}, "CAKI-1 renal": {"system": "CAKI-1 renal"}, "CCRF-CEM leukemia": {"system": "CCRF-CEM leukemia"}, "EKVX NSCLC": {"system": "EKVX NSCLC"}, "SK-OV-3 ovarian": {"system": "SK-OV-3 ovarian"}, "HCC-2998 colon": {"system": "HCC-2998 colon"}, "HCT-116 colon": {"system": "HCT-116 colon"}, "SW-620 colon": {"system": "SW-620 colon"}, "TK-10 renal": {"system": "TK-10 renal"}, "KM12 colon": {"system": "KM12 colon"}},
  "note": "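Abbreviation: GI50, concentration required for 50% inhibition of growth. TGI denotes the concentration required for complete inhibition of growth.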",
  "data": [
    {"smiles": "CN1CCN(c2ccc(OC(F)(F)F)c(Nc3ncc4c(n3)-c3c(c(C(N)=O)nn3CCO)CC4)c2)CC1", "values": [
      {"measurement": "GI50", "setting": "IGROV1 ovarian", "value": 40.6, "unit": "nM"},
      {"measurement": "TGI", "setting": "IGROV1 ovarian", "value": 15900, "unit": "nM"},
      {"measurement": "GI50", "setting": "NCI-H522 lung", "value": "< 10", "unit": "nM"},
      {"measurement": "TGI", "setting": "NCI-H522 lung", "value": 26.6, "unit": "nM"},
      {"measurement": "GI50", "setting": "A498 renal", "value": 87.1, "unit": "nM"},
      {"measurement": "TGI", "setting": "A498 renal", "value": 17300, "unit": "nM"},
      {"measurement": "GI50", "setting": "MOLT-4 leukemia", "value": 10, "unit": "nM"},
      {"measurement": "TGI", "setting": "MOLT-4 leukemia", "value": 22.1, "unit": "nM"},
      {"measurement": "GI50", "setting": "NCI-H460 NSCLC", "value": 17.8, "unit": "nM"},
      {"measurement": "TGI", "setting": "NCI-H460 NSCLC", "value": 37.7, "unit": "nM"},
      {"measurement": "GI50", "setting": "HL-60(TB) leukemia", "value": "< 10", "unit": "nM"},
      {"measurement": "TGI", "setting": "HL-60(TB) leukemia", "value": "< 10", "unit": "nM"},
      {"measurement": "GI50", "setting": "PC-3 prostate", "value": 43.8, "unit": "nM"},
      {"measurement": "TGI", "setting": "PC-3 prostate", "value": 35200, "unit": "nM"},
      {"measurement": "GI50", "setting": "HCT-15 colon", "value": 56.1, "unit": "nM"},
      {"measurement": "TGI", "setting": "HCT-15 colon", "value": 347, "unit": "nM"},
      {"measurement": "GI50", "setting": "OVCAR-5 ovarian", "value": 30.8, "unit": "nM"},
      {"measurement": "TGI", "setting": "OVCAR-5 ovarian", "value": "> 100000", "unit": "nM"},
      {"measurement": "GI50", "setting": "SN12C renal", "value": 546, "unit": "nM"},
      {"measurement": "TGI", "setting": "SN12C renal", "value": 15100, "unit": "nM"},
      {"measurement": "GI50", "setting": "MALME-3M melanoma", "value": 68.5, "unit": "nM"},
      {"measurement": "TGI", "setting": "MALME-3M melanoma", "value": 16700, "unit": "nM"},
      {"measurement": "GI50", "setting": "SF-268 CNS", "value": "< 10", "unit": "nM"},
      {"measurement": "TGI", "setting": "SF-268 CNS", "value": 12, "unit": "nM"},
      {"measurement": "GI50", "setting": "MCF7 breast", "value": 18.3, "unit": "nM"},
      {"measurement": "TGI", "setting": "MCF7 breast", "value": 12500, "unit": "nM"},
      {"measurement": "GI50", "setting": "NCI-H23 lung", "value": 13.9, "unit": "nM"},
      {"measurement": "TGI", "setting": "NCI-H23 lung", "value": 37.7, "unit": "nM"},
      {"measurement": "GI50", "setting": "MDA-MB-468 breast", "value": "< 10", "unit": "nM"},
      {"measurement": "TGI", "setting": "MDA-MB-468 breast", "value": "< 10", "unit": "nM"},
      {"measurement": "GI50", "setting": "MDA-MB-231 breast", "value": 38.3, "unit": "nM"},
      {"measurement": "TGI", "setting": "MDA-MB-231 breast", "value": 58100, "unit": "nM"},
      {"measurement": "GI50", "setting": "OVCAR-4 ovarian", "value": 6100, "unit": "nM"},
      {"measurement": "TGI", "setting": "OVCAR-4 ovarian", "value": 27100, "unit": "nM"},
      {"measurement": "GI50", "setting": "NCI-H226 lung", "value": 14800, "unit": "nM"},
      {"measurement": "TGI", "setting": "NCI-H226 lung", "value": 56300, "unit": "nM"},
      {"measurement": "GI50", "setting": "HOP-92 NSCLC", "value": 73.9, "unit": "nM"},
      {"measurement": "TGI", "setting": "HOP-92 NSCLC", "value": 6660, "unit": "nM"},
      {"measurement": "GI50", "setting": "SNB-75 CNS", "value": 64, "unit": "nM"},
      {"measurement": "TGI", "setting": "SNB-75 CNS", "value": 4690, "unit": "nM"},
      {"measurement": "GI50", "setting": "NCI/ADR-RES ovarian", "value": 325, "unit": "nM"},
      {"measurement": "TGI", "setting": "NCI/ADR-RES ovarian", "value": 1330, "unit": "nM"},
      {"measurement": "GI50", "setting": "SK-MEL-5 melanoma", "value": 11.5, "unit": "nM"},
      {"measurement": "TGI", "setting": "SK-MEL-5 melanoma", "value": 121, "unit": "nM"},
      {"measurement": "GI50", "setting": "786-0 renal", "value": 52.7, "unit": "nM"},
      {"measurement": "TGI", "setting": "786-0 renal", "value": 10300, "unit": "nM"},
      {"measurement": "GI50", "setting": "SF-539 CNS", "value": 30.8, "unit": "nM"},
      {"measurement": "TGI", "setting": "SF-539 CNS", "value": 263, "unit": "nM"},
      {"measurement": "GI50", "setting": "ACHN renal", "value": 554, "unit": "nM"},
      {"measurement": "TGI", "setting": "ACHN renal", "value": 19700, "unit": "nM"},
      {"measurement": "GI50", "setting": "SNB-19 CNS", "value": 39.2, "unit": "nM"},
      {"measurement": "TGI", "setting": "SNB-19 CNS", "value": "> 100000", "unit": "nM"},
      {"measurement": "GI50", "setting": "T-47D breast", "value": 184, "unit": "nM"},
      {"measurement": "TGI", "setting": "T-47D breast", "value": 8330, "unit": "nM"},
      {"measurement": "GI50", "setting": "RXF 393 renal", "value": 15.1, "unit": "nM"},
      {"measurement": "TGI", "setting": "RXF 393 renal", "value": 43.9, "unit": "nM"},
      {"measurement": "GI50", "setting": "HS 578T breast", "value": 20.2, "unit": "nM"},
      {"measurement": "TGI", "setting": "HS 578T breast", "value": 54.1, "unit": "nM"},
      {"measurement": "GI50", "setting": "MDA-MB-435 melanoma", "value": 10.8, "unit": "nM"},
      {"measurement": "TGI", "setting": "MDA-MB-435 melanoma", "value": 28.8, "unit": "nM"},
      {"measurement": "GI50", "setting": "OVCAR-8 ovarian", "value": 18.3, "unit": "nM"},
      {"measurement": "TGI", "setting": "OVCAR-8 ovarian", "value": 37.6, "unit": "nM"},
      {"measurement": "GI50", "setting": "OVCAR-3 ovarian", "value": "< 10", "unit": "nM"},
      {"measurement": "TGI", "setting": "OVCAR-3 ovarian", "value": 37.2, "unit": "nM"},
      {"measurement": "GI50", "setting": "DU-145 prostate", "value": 26.4, "unit": "nM"},
      {"measurement": "TGI", "setting": "DU-145 prostate", "value": 104, "unit": "nM"},
      {"measurement": "GI50", "setting": "HOP-62 NSCLC", "value": 25.2, "unit": "nM"},
      {"measurement": "TGI", "setting": "HOP-62 NSCLC", "value": 297, "unit": "nM"},
      {"measurement": "GI50", "setting": "CAKI-1 renal", "value": 478, "unit": "nM"},
      {"measurement": "TGI", "setting": "CAKI-1 renal", "value": 19400, "unit": "nM"},
      {"measurement": "GI50", "setting": "CCRF-CEM leukemia", "value": "< 10", "unit": "nM"},
      {"measurement": "TGI", "setting": "CCRF-CEM leukemia", "value": "< 10", "unit": "nM"},
      {"measurement": "GI50", "setting": "EKVX NSCLC", "value": 93.6, "unit": "nM"},
      {"measurement": "TGI", "setting": "EKVX NSCLC", "value": 19400, "unit": "nM"},
      {"measurement": "GI50", "setting": "SK-OV-3 ovarian", "value": 37.6, "unit": "nM"},
      {"measurement": "TGI", "setting": "SK-OV-3 ovarian", "value": "> 100000", "unit": "nM"},
      {"measurement": "GI50", "setting": "HCC-2998 colon", "value": 18.4, "unit": "nM"},
      {"measurement": "TGI", "setting": "HCC-2998 colon", "value": 61.6, "unit": "nM"},
      {"measurement": "GI50", "setting": "HCT-116 colon", "value": 19.8, "unit": "nM"},
      {"measurement": "TGI", "setting": "HCT-116 colon", "value": 13000, "unit": "nM"},
      {"measurement": "GI50", "setting": "SW-620 colon", "value": 13.6, "unit": "nM"},
      {"measurement": "TGI", "setting": "SW-620 colon", "value": 145, "unit": "nM"},
      {"measurement": "GI50", "setting": "TK-10 renal", "value": 17300, "unit": "nM"},
      {"measurement": "TGI", "setting": "TK-10 renal", "value": "> 100000", "unit": "nM"},
      {"measurement": "GI50", "setting": "KM12 colon", "value": 11.4, "unit": "nM"},
      {"measurement": "TGI", "setting": "KM12 colon", "value": 95.4, "unit": "nM"}
    ]}
  ]
}
